# Measured values reported in patent US8748415B2 (priority 2011, dated 2014).
# Tested on: recombinant NL4-3 virus (Renilla luciferase in nef, Gag P373S)
# Assay: HIV cell culture assay (luciferase activity in MT-2 cells infected with NLRluc recombinant virus)
# Assay type: cell-based
# Settings: NL43, MT-2 cells infected 4-5 days with NLRluc recombinant virus, class symbol
# Procedure, shortened: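 MT-2 cells in RPMI/10% FBS were infected with recombinant NL4-3 (NLRluc), produced by 293T transfection and titered in MT-2 by luciferase. Serial inhibitor dilutions were present throughout a 4–5 day infection. Antiviral activity was quantified as Renilla luciferase signal via a modified Dual Luciferase read.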
row,Compound,EC50 [nM]
1,"C=C(C)[C@@H]1CC[C@]2(CNCCCN3C(=O)CCCC3=O)CC[C@]3(C)[C@H](CC[C@@H]4[C@@]5(C)CC=C(c6ccc(C(=O)O)cc6)C(C)(C)[C@@H]5CC[C@]43C)[C@@H]12 [Example 80, 4-((1R,3aS,5aR,5bR,7aR,11aS,11bR,13aR,13bR)-3a-((3-(2,6-dioxopiperidin-1-yl)propylamino)methyl)-5a,5b,8,8,11a-pentamethyl-1-(prop-1-en-2-yl)-2,3,3a,4,5,5a,5b,6,7,7a,8,11,11a,11b,12,13,13a,13b-octadecahydro-1H-cyclopenta[a]chrysen-9-yl)benzoic acid]",< 100
2,"C=C(C)[C@@H]1CC[C@]2(CNCC(O)CN3CCCC3=O)CC[C@]3(C)[C@H](CC[C@@H]4[C@@]5(C)CC=C(c6ccc(C(=O)O)cc6)C(C)(C)[C@@H]5CC[C@]43C)[C@@H]12 (stereo partly drawn) [Example 81, 4-((1R,3aS,5aR,5bR,7aR,11aS,11bR,13aR,13bR)-3a-((2-hydroxy-3-(2-oxopyrrolidin-1-yl)propylamino)methyl)-5a,5b,8,8,11a-pentamethyl-1-(prop-1-en-2-yl)-2,3,3a,4,5,5a,5b,6,7,7a,8,11,11a,11b,12,13,13a,13b-octadecahydro-1H-cyclopenta[a]chrysen-9-yl)benzoic acid]",< 100
3,"C=C(C)[C@@H]1CC[C@]2(CNC3(CN4CCCCC4)CC3)CC[C@]3(C)[C@H](CC[C@@H]4[C@@]5(C)CC=C(c6ccc(C(=O)O)cc6)C(C)(C)[C@@H]5CC[C@]43C)[C@@H]12 [Example 82, 4-((1R,3aS,5aR,5bR,7aR,11aS,11bR,13aR,13bR)-5a,5b,8,8,11a-pentamethyl-3a-((1-(piperidin-1-ylmethyl)cyclopropylamino)methyl)-1-(prop-1-en-2-yl)-2,3,3a,4,5,5a,5b,6,7,7a,8,11,11a,11b,12,13,13a,13b-octadecahydro-1H-cyclopenta[a]chrysen-9-yl)benzoic acid]",< 100
4,"C=C(C)[C@@H]1CC[C@]2(CN(C)C)CC[C@]3(C)[C@H](CC[C@@H]4[C@@]5(C)CC=C(c6ccc(C(=O)O)cc6)C(C)(C)[C@@H]5CC[C@]43C)[C@@H]12 [Example 83, 4-((1R,3aS,5aR,5bR,7aR,11aS,11bR,13aR,13bR)-3a-((dimethylamino)methyl)-5a,5b,8,8,11a-pentamethyl-1-(prop-1-en-2-yl)-2,3,3a,4,5,5a,5b,6,7,7a,8,11,11a,11b,12,13,13a,13b-octadecahydro-1H-cyclopenta[a]chrysen-9-yl)benzoic acid]",< 100
5,"C=C(C)[C@@H]1CC[C@]2(CN(CCCN3CCS(=O)(=O)CC3)C3CC3)CC[C@]3(C)[C@H](CC[C@@H]4[C@@]5(C)CC=C(c6ccc(C(=O)O)cc6)C(C)(C)[C@@H]5CC[C@]43C)[C@@H]12 [Example 84, 4-((1R,3aS,5aR,5bR,7aR,11aS,11bR,13aR,13bR)-3a-((cyclopropyl(3-(1,1-dioxido-4-thiomorpholinyl)propyl)amino)methyl)-1-isopropenyl-5a,5b,8,8,11a-pentamethyl-2,3,3a,4,5,5a,5b,6,7,7a,8,11,11a,11b,12,13,13a,13b-octadecahydro-1H-cyclopenta[a]chrysen-9-yl)benzoic acid]",< 100
6,"C=C(C)[C@@H]1CC[C@]2(CNCCN(C)CCS(C)(=O)=O)CC[C@]3(C)[C@H](CC[C@@H]4[C@@]5(C)CC=C(c6ccc(C(=O)O)cc6)C(C)(C)[C@@H]5CC[C@]43C)[C@@H]12 [Example 85, 4-((1R,3aS,5aR,5bR,7aR,11aS,11bR,13aR,13bR)-5a,5b,8,8,11a-pentamethyl-3a-((2-(methyl(2-(methylsulfonyl)ethyl)amino)ethylamino)methyl)-1-(prop-1-en-2-yl)-2,3,3a,4,5,5a,5b,6,7,7a,8,11,11a,11b,12,13,13a,13b-octadecahydro-1H-cyclopenta[a]chrysen-9-yl)benzoic acid]",< 100
7,C=C(C)[C@@H]1CC[C@]2(CNCCN3CCSCC3)CC[C@]3(C)[C@H](CC[C@@H]4[C@@]5(C)CC=C(c6ccc(C(=O)O)cc6)C(C)(C)[C@@H]5CC[C@]43C)[C@@H]12 [Example 86],< 100
8,"C=C(C)[C@@H]1CC[C@]2(CNCCCN3CCCC3=O)CC[C@]3(C)[C@H](CC[C@@H]4[C@@]5(C)CC=C(c6ccc(C(=O)O)cc6F)C(C)(C)[C@@H]5CC[C@]43C)[C@@H]12 [Example 87, 3-fluoro-4-((1R,3aS,5aR,5bR,7aR,11aS,11bR,13aR,13bR)-5a,5b,8,8,11a-pentamethyl-3a-((3-(2-oxopyrrolidin-1-yl)propylamino)methyl)-1-(prop-1-en-2-yl)-2,3,3a,4,5,5a,5b,6,7,7a,8,11,11a,11b,12,13,13a,13b-octadecahydro-1H-cyclopenta[a]chrysen-9-yl)benzoic acid]",< 100
9,"C=C(C)[C@@H]1CC[C@]2(CNCCCN3CCCC3=O)CC[C@]3(C)[C@H](CC[C@@H]4[C@@]5(C)CC=C(c6ccc(C(=O)O)c(F)c6)C(C)(C)[C@@H]5CC[C@]43C)[C@@H]12 [Example 88, 2-fluoro-4-((1R,3aS,5aR,5bR,7aR,11aS,11bR,13aR,13bR)-5a,5b,8,8,11a-pentamethyl-3a-((3-(2-oxopyrrolidin-1-yl)propylamino)methyl)-1-(prop-1-en-2-yl)-2,3,3a,4,5,5a,5b,6,7,7a,8,11,11a,11b,12,13,13a,13b-octadecahydro-1H-cyclopenta[a]chrysen-9-yl)benzoic acid]",< 100
10,"C=C(C)[C@@H]1CC[C@]2(CNCCC(=O)N3CCCC3)CC[C@]3(C)[C@H](CC[C@@H]4[C@@]5(C)CC=C(c6ccc(C(=O)O)cc6F)C(C)(C)[C@@H]5CC[C@]43C)[C@@H]12 [Example 89, 3-fluoro-4-((1R,3aS,5aR,5bR,7aR,11aS,11bR,13aR,13bR)-5a,5b,8,8,11a-pentamethyl-3a-((3-oxo-3-(pyrrolidin-1-yl)propylamino)methyl)-1-(prop-1-en-2-yl)-2,3,3a,4,5,5a,5b,6,7,7a,8,11,11a,11b,12,13,13a,13b-octadecahydro-1H-cyclopenta[a]chrysen-9-yl)benzoic acid]",< 100
11,"C=C(C)[C@@H]1CC[C@]2(CNCCC(=O)N3CCCC3)CC[C@]3(C)[C@H](CC[C@@H]4[C@@]5(C)CC=C(c6ccc(C(=O)O)c(F)c6)C(C)(C)[C@@H]5CC[C@]43C)[C@@H]12 [Example 90, 2-fluoro-4-((1R,3aS,5aR,5bR,7aR,11aS,11bR,13aR,13bR)-5a,5b,8,8,11a-pentamethyl-3a-((3-oxo-3-(pyrrolidin-1-yl)propylamino)methyl)-1-(prop-1-en-2-yl)-2,3,3a,4,5,5a,5b,6,7,7a,8,11,11a,11b,12,13,13a,13b-octadecahydro-1H-cyclopenta[a]chrysen-9-yl)benzoic acid]",< 100
12,"C=C(C)[C@@H]1CC[C@]2(CNCCN3CCCC3=O)CC[C@]3(C)[C@H](CC[C@@H]4[C@@]5(C)CC=C(c6ccc(C(=O)O)c(F)c6)C(C)(C)[C@@H]5CC[C@]43C)[C@@H]12 [Example 91, 2-fluoro-4-((1R,3aS,5aR,5bR,7aR,11aS,11bR,13aR,13bR)-5a,5b,8,8,11a-pentamethyl-3a-((2-(2-oxopyrrolidin-1-yl)ethylamino)methyl)-1-(prop-1-en-2-yl)-2,3,3a,4,5,5a,5b,6,7,7a,8,11,11a,11b,12,13,13a,13b-octadecahydro-1H-cyclopenta[a]chrysen-9-yl)benzoic acid]",< 100
